By IC50 is commonly meant the midpoint of a concentration-inhibition curve.

Assay [1] deals with Phosphatidylinositol 4,5-bisphosphate 3-kinase catalytic subunit gamma isoform (Homo sapiens, UniProt P48736). Nature of the assay: PI3K-gamma Scintillation Proximity Assay. The note with it: pH 6.7; 25 °C. From the text: γ-33P]ATP (10 mCi/mL) and Wheat Germ Agglutinin (WGA) YSi SPA Scintillation Beads was purchased from Perkin-Elmer (Waltham, Mass.). Lipid kinase substrate, D-myo-Phosphatidylinositol 4,5-bisphosphate (PtdIns(4,5)P2)D (+)-sn-1,2-di-O-octanoylglyceryl, 3-O-phospho linked (PIP2), CAS 204858-53-7, was purchased from Echelon Biosciences (Salt Lake City, Utah). PI3Kγ (p110γ) Recombinant Human Protein was purchased from Life technology (Grand Island, N.Y.). ATP, MgCl2, DTT, EDTA, MOPS and CHAPS were purchased from Sigma-Aldrich (St. Louis, Mo.).The kinase reaction was conducted in polystyrene 384-well Greiner Bio-one white plate from Thermo Fisher Scientific in a final volume of 25 μL. Inhibitors were first diluted serially in DMSO and added to the plate wells before the addition of other reaction components. The final concentration of DMSO in the assay was 2%. The PI3Kγ assay was carried out at room temperature in 20 mM MOPS, pH 6.7, 10 mM MgCl2, 5 mM DTT and CHAPS 0.03%. Reactions were initiated by the addition of ATP, the final reaction mixture consisted of 20 μM PIP2, 2 μM ATP, 0.5 μCi [γ-33P] ATP, 13 nM PI3Kγ. […] After the plate sealing, plates were shaken overnight at room temperature and centrifuged at 1500 rpm for 10 min, the radioactivity of the product was determined by scintillation counting on Topcount (Perkin-Elmer). […]
Sequence of Phosphatidylinositol 4,5-bisphosphate 3-kinase catalytic subunit gamma isoform (P48736 whole entry, canonical isoform): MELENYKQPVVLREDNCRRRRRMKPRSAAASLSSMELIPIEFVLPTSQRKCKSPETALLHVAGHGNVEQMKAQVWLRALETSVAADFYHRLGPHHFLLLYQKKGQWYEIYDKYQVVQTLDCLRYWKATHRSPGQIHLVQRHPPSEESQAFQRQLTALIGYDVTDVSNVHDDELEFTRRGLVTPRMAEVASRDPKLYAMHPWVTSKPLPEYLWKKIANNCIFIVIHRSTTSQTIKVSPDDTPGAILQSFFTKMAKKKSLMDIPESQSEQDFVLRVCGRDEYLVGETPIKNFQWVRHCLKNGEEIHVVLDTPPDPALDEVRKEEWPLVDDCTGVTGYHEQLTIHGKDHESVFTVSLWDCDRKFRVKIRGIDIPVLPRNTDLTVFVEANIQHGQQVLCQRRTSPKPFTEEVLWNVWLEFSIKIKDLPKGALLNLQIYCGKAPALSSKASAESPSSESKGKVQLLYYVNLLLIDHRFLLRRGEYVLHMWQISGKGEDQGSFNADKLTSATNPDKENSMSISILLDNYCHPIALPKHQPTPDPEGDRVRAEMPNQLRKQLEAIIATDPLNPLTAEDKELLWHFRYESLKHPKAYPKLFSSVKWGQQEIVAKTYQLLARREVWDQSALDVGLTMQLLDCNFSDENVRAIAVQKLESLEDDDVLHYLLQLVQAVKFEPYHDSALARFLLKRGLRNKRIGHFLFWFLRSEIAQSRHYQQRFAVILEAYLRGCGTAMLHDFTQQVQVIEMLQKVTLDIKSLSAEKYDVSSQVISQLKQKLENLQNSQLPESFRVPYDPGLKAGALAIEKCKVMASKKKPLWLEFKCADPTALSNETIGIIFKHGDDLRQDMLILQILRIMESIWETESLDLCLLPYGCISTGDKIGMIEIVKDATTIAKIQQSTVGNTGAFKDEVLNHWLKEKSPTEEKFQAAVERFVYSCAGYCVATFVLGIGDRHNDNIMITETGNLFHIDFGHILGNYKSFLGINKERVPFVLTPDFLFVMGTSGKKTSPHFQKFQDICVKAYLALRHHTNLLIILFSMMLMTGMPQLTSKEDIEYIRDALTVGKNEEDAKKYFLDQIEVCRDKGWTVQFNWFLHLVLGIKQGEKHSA
Background: In a scintillation proximity assay essentially only radioactivity close to the scintillant gives light.

Assay [2] has as its target T1, Phosphatidylinositol 4,5-bisphosphate 3-kinase catalytic subunit delta isoform (Homo sapiens, UniProt O00329).
T1 sequence (O00329 whole entry): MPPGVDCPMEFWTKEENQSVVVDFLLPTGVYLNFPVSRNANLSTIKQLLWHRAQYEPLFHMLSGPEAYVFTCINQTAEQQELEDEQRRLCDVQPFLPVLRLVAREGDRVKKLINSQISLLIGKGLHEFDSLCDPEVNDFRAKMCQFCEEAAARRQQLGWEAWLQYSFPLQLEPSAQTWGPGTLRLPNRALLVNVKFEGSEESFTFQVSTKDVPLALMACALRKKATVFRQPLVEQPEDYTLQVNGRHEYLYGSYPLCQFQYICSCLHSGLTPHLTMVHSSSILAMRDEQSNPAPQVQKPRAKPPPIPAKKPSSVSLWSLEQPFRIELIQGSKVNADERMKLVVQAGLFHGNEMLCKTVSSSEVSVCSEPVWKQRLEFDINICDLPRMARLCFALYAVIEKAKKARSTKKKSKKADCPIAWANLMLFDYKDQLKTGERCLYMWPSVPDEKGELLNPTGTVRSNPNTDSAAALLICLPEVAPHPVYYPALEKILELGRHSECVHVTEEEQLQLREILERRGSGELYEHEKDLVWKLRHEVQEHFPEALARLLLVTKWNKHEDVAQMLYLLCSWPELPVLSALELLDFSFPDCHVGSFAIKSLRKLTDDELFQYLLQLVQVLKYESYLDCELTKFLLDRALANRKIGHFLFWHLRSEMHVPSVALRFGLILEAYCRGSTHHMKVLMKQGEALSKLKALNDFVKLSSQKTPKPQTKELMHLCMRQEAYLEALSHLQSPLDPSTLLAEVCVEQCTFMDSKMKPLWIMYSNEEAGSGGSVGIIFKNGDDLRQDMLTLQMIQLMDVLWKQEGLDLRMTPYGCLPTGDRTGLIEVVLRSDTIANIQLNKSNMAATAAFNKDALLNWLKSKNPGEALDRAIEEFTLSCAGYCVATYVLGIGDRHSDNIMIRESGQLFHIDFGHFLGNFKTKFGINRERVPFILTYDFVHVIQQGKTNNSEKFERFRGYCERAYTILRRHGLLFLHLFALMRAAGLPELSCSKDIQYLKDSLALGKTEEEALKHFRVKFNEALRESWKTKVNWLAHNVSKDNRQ
Description: PI3Kdelta Scintillation Proximity Assay. The note with it: pH 6.7; 25 °C. From the text: [γ-33P]ATP (10 mCi/mL) and Wheat Germ Agglutinin (WGA) YSi SPA Scintillation Beads was purchased from Perkin-Elmer (Waltham, Mass.). Lipid kinase substrate, D-myo-Phosphatidylinositol 4,5-bisphosphate (PtdIns(4,5)P2)D (+)-sn-1,2-di-O-octanoylglyceryl, 3-O-phospho linked (PIP2), CAS 204858-53-7, was purchased from Echelon Biosciences (Salt Lake City, Utah). PI3Kδ (p110δ/p85α) Recombinant Human Protein was purchased from Eurofins (St. Charles, Mo.). ATP, MgCl2, DTT, EDTA, MOPS and CHAPS were purchased from Sigma-Aldrich (St. Louis, Mo.).The kinase reaction was conducted in polystyrene 384-well Greiner Bio-one white plate from Thermo Fisher Scientific in a final volume of 25 μL. Inhibitors were first diluted serially in DMSO and added to the plate wells before the addition of other reaction components. The final concentration of DMSO in the assay was 2%. The PI3Kδ assay was carried out at room temperature in 20 mM MOPS, pH 6.7, 10 mM MgCl2, 5 mM DTT and CHAPS 0.03%. Reactions were initiated by the addition of ATP, the final reaction mixture consisted of 20 μM PIP2, 2 μM ATP, 0.5 μCi [γ-33P] ATP, 3.4 nM PI3Kδ. Reactions were incubated for 120 min and terminated by the addition of 40 μL SPA beads suspended in quench buffer: 163 mM potassium phosphate pH 7.8, 20% glycerol, 25 mM EDTA. The final concentration of SPA beads is 1.0 mg/mL. After the plate sealing, plates were shaken overnight at room temperature and centrifuged at 1500 rpm for 10 min, the radioactivity of the product was determined by scintillation counting on Topcount (Perkin-Elmer). IC50 determination was performed by fitting the curve of percent of the solvent control activity versus the log of the inhibitor concentration using the GraphPad Prism 6.0 software.

For the compound `CC(=O)Nc1cc(-c2ccc3nc(-c4nc5ccccc5[nH]4)oc3c2)cnc1F` [US10022387, Example 33], the values for the IC50 in assay [1] and in assay [2] were below 1 µM and above 5 µM, respectively.

In assay [2], `COc1cncc(-c2ccc3nc(-c4cc5ccccc5[nH]4)oc3c2)c1` [US10022387, Example 4] returned a 50% inhibitory concentration (IC50) below 5 µM.

The compound `CCS(=O)(=O)Nc1cncc(-c2ccc3nc(-c4nc5ccccc5[nH]4)oc3c2)c1` [US10022387, Example 73] showed an IC50 in assay [2] below 5 µM.

For the origin of these results see BindingDB's records for patent US10022387 (Incyte, 2018).
